The data set has as its system Daudi tumor cell line. Kind of data set: Cytotoxicity testing against Daudi cells (killing of 50% of the Daudi cells). Format: cell-based. The note with it: 5E9 conjugate versus free agents, conjugate MSR=8.9, read-out: CC50 (concentration of platinum compound which killed 50% of the Daudi cells).

Turning to “ammino[4-succinimidyl -(5-aminopentan-2-one) terephthalic hydrazone] tetrachloro platinum (IV) [AAtC]”, the CC50 came to 2100 nM.

For the origin of these results see US5547982A, “Anti-tumor platinum complexes” (priority 1995, dated 1996).
